Results taken from patent US8021831B2, “Taxane chemosensitivity prediction test” (Board of Regents, The University of Texas System, priority 2003, dated 2011).

Key:
microtubule site = conditions: higher than paclitaxel, same microtubule site; cited from earlier work
[1] = tested on: resistant tumor (tumor of T47D); test: Tumor volume in tumor-bearing nude mice, resistant tumor; format: in vivo; conditions: 20 mg paclitaxel per day i.p., Days 34-38, until day 43
Procedure: (§1) FIG. 7. The susceptible and resistant cells (1×10^7 cells/mouse) were inoculated into nude mice. When the tumor volume reached more than 300 mm^3, 20 mg of Paclitaxel per day was intraperitoneally administered on five consecutive days (Days 34-38 after the inoculations). The tumor size was recorded on Days 20-43. […] By contrast, the volume of resistant tumor remained at 350 mm^3 until Day 43.
(§2) To further confirm the above in vitro results, an in vivo validation study was performed. The susceptible and resistant cells were inoculated into nude mice. When the tumor volume reached more than 300 mm^3, 20 mg of paclitaxel per day was intraperitoneally administered on five consecutive days (Days 34-38 after the inoculations). The tumor size was recorded on days 20-43. […] By contrast, volume of resistant tumors remained at 350 mm^3 until day 43.
as §1, with “The” for “FIG. 7. The”, “of paclitaxel” for “of Paclitaxel”, “on days” for “on Days”, “until day 43 (FIG. 7).” for “until Day 43.”

[2] = tested on: CDK1 in tumor of MDA-MB231; test: Cell cycle profiling of tumor tissue lysates, CDK1 specific activity; format: in vivo, nude mice; conditions: 24 hr after treatment
Procedure: (§3) FIG. 8. Lysates of the tumor tissues from tumor-bearing mice were subjected to cell cycle profiling. […] These are (A1) CDK1 specific activity 24 hr after treatment; (A2) CDK2 specific activity before treatment; (E5) MAD2 expression before treatment; (E3) Cyclin E expression before treatment; (E4) p21 expression before treatment; and (E1) CDK6 expression before treatment. The value plotted in the graph was calculated by dividing with the bigger raw value between two tumors on the each parameter.
(§4) Enzyme activity analyses of cell cycle profiling. Enzyme activity analyses of cell cycle profiling were performed using a non-radioisotopic method. Cell lysates were prepared as described for expression analysis. […] After three washes with washing buffer (0.1% NP-40, 50 mM Tris-Cl [pH 7.4]), 50 μl of the substrate mixture containing 10 μg of protein substrate, 5 mM adenosine 5′-O-(3-thiotriphosphate) (Sigma), 20 mM Tris-Cl (pH 7.4), and 0.1% Triton X-100 was added to the beads and incubated under continuous shaking at 37° C. for 10 min. Histone H1 (Upstate Biotechnology, Lake Placid, N.Y., USA) was used as the protein substrate for CDK1 and CDK2, and recombinant RB protein (amino acids 769-921) for CDK4 and CDK6. After the beads were removed, the introduced monothiophosphates in the substrate were further labeled by incubation with 10 mM iodoacetyl-biotin (Pierce) in coupling buffer (100 mM Tris-Cl [pH 8.5], 1 mM EDTA) for 90 min in the dark at room temperature. The reaction was quenched with β-mercaptoethanol, and 0.4 μg of the substrate was applied to the wells of the dot-blot device. The wells were blocked with 4% bovine serum albumin (BSA) for 30 min, then incubated with avidin-FITC (Vector) for 1 hr at 37° C.

CDK1 in tumor of T47D = test: as above; format: in vivo, nude mice; conditions: 24 hr after treatment
Procedure: as §3, §4

[3] = tested on: advanced drug refractory ovarian cancer; conditions: advanced drug refractory ovarian cancer patients; cited from earlier work
[4] = tested on: Cdk1 activity in MCF-7 cells; test: Cdk1 kinase assay after paclitaxel treatment; format: cell-based, human; conditions: MCF-7 control cells; paclitaxel 100 nM; 24 hr after treatment
Procedure: Twenty-four hr after transfection, cells were treated with paclitaxel (100 nM) and harvested at the indicated times. FIG. 1D—Cyclin-dependent kinase-1 (Cdk1) activity after treatment with paclitaxel in each cell. Twenty-four hr after transfection, cells were treated with paclitaxel (100 nM) and harvested at the indicated times. Activity of Cdk1 in the lysates was determined as described in Experimental procedures.
Cdk1 kinase assay. The Cdk1 protein kinase assay was performed using the SignaTECT cdc2 protein assay system (Promega, Madison, Wis.). Briefly, the harvested cells were lysed with the extraction buffer (50 mM Tris [pH 7.4], 150 mM NaCl, 0.1% Triton X-100, and 1 mM EDTA) containing protease inhibitors (100 μg/ml aprotinin and 0.5 mM phenylmethane sulphonyl fluoride) and phosphatase inhibitors (50 mM NaF). These lysates were conjugated with a substrate consisting of cdc2-specific biotinylated peptide derived from histone H1 and [γ-^32P] ATP, and incubated at 30° C. for 10 min. […] After several washings, each captured membrane was placed into a separate vial and analyzed using a liquid scintillation counter (Beckman Coulter, Palo Alto, Calif.).
(§8) To test the effects of suppression of Mad2, BubR1, or both on the spindle assembly checkpoint activated by paclitaxel, the mitotic indices were determined and the Cdk1 activity measured, both of which reflect the status of this checkpoint.

[5] = tested on: previously treated metastatic breast cancer; conditions: previously treated metastatic breast cancer patients; cited from earlier work
T47D = test: Paclitaxel cytotoxicity test (MTT assay); format: cell-based, human; conditions: 1, 5, 10, 50 or 100 nM paclitaxel, 72 hr
Procedure: (§5) FIG. 5. Sensitivities of cell lines to Paclitaxel were judged according to a graph analysis of the Paclitaxel cytotoxicity test. […] The Paclitaxel cytotoxicity test was performed as follows. The cells were cultivated in wells of a 96-well culture plate in presence of 1, 5, 10, 50 or 100 nM Paclitaxel. After 72 hr cultivation, cell survival was measured by the MTT assay.
(§6) Drug sensitivity assays. Cells were detached by trypsinization, seeded at 2.0×10^3 cells/well in a 96-well microtiter plate, and treated with various concentrations of paclitaxel (1, 5, 10, 50, 100 and 1000 nM). Seventy-two hr later, the effects on cell growth were examined by 3-(4,5-dimethylthiazol-2-yl)-2,5-diphenyl tetrazolium bromide (MTT) assay: 20 μl of MTT solution (5 mg/ml in phosphate-buffered saline; Sigma Aldrich) was added to each well, and the cells were incubated for 4 hr at 37° C. The MTT-formazan formed by metabolically viable cells was dissolved in 100 μl of cell lysis buffer, and […] was monitored using a microplate at a wavelength of 570 nm. The percentage of cell growth was calculated by defining the absorption of cells not treated with paclitaxel (control) as 100%.
(§7) Sensitivities of four human breast cancer cell lines to paclitaxel were judged according to a graph analysis of the paclitaxel cytotoxicity test (FIG. 5). […] The paclitaxel cytotoxicity test was performed as follows. The cells were cultivated in wells of a 96-well culture plate in presence of 1, 5, 10, 50 or 100 nM paclitaxel. After 72 hr cultivation, cell survival was measured by the MTT assay.

MDA-MB231 = test: Paclitaxel cytotoxicity test (MTT assay); format: cell-based, human; conditions: 1, 5, 10, 50 or 100 nM paclitaxel, 72 hr
Procedure: as §5, §6, §7

MCF-7 = test: Paclitaxel cytotoxicity test (MTT assay); format: cell-based, human; conditions: 1, 5, 10, 50 or 100 nM paclitaxel, 72 hr
Procedure: as §5, §6, §7

MDA-MB435 = test: Paclitaxel cytotoxicity test (MTT assay); format: cell-based, human; conditions: 1, 5, 10, 50 or 100 nM paclitaxel, 72 hr
Procedure: as §5, §6, §7

MCF-7 cells [6] = test: Cell death analysis (trypan blue exclusion); format: cell-based, human; conditions: MCF-7 control cells, paclitaxel 100 nM, 48 hr
Procedure: FIG. 2B—MCF-7 cells transfected with siRNA/Mad2, BubR1, or both were examined for cell death induced by paclitaxel. Twenty-four hr after transfection, cells were treated with paclitaxel (100 nM) for 48 hr. Cell viability was assessed using trypan blue exclusion assay.
Cell death analysis. Cell death was evaluated using the trypan blue dye exclusion assay. Briefly, cells were harvested using trypsin and stained with 0.4% trypan blue dye (Sigma-Aldrich Chemical Co., St. Louis, Mo.). Trypan blue-positive and -negative cells were counted using a hemacytometer (Hausser Scientific, Horsham, Pa.) under a phase-contrast microscope (Fisher Scientific, Pittsburgh, Pa.). The results of each assay were expressed in terms of the percentage of dead cells relative to the total number of cells. Individual experiments were performed in triplicate.
Next, to determine whether these resistances were due to the reduction of cell death induced by paclitaxel, the inventors assessed the population of cell death using trypan blue exclusion.

[7] = tested on: susceptible tumor (tumor of MDA-MB231); test: Tumor volume in tumor-bearing nude mice, susceptible tumor; format: in vivo; conditions: 20 mg paclitaxel per day i.p.
Procedure: as §1, §2
as §1, with “The” for “FIG. 7. The”, “of paclitaxel” for “of Paclitaxel”, “on days” for “on Days”, “until day 43 (FIG. 7).” for “until Day 43.”

MCF-7 cells [8] = test: Mitotic indices after paclitaxel treatment; format: cell-based, human; conditions: MCF-7 control (siRNA/control) cells; paclitaxel 100 nM; 24 hr after treatment
Procedure: FIG. 1C—Mitotic indices of each cell after treatment with paclitaxel. Twenty-four hr after transfection, cells were treated with paclitaxel (100 nM) and harvested at the indicated times.
Calculation of mitotic indices. Cells with mitotic condensed chromatin were visualized by staining with 10 μM Hoechst 33342 dye (Aventis Pharmaceuticals Inc., Bridgewater, N.J.) in conjunction with 10 μg/ml propidium iodide; the propidium iodide was incorporated into dead cells only. […] The cells were harvested at 12, 24, and 36 hr after transfection and the mitotic indices calculated.
as §8

various lung cancers = conditions: patients; cited from earlier work

Structure (SMILES) | affinity for the microtubule site relative to paclitaxel (microtubule site) | tumor volume remained at [1] | CDK1 specific activity (A1), divided by the bigger raw value [2] | CDK1 specific activity (A1), raw value [2] | CDK1 specific activity (A1), divided by the bigger raw value (CDK1 in tumor of T47D) | CDK1 specific activity (A1), raw value (CDK1 in tumor of T47D) | Response rate [3] | Cdk1 activity [4] | Response rate [5] | Sensitivity of cell line to paclitaxel (judged by graph analysis of cytotoxicity test) (T47D) | Sensitivity of cell line to paclitaxel (judged by graph analysis of cytotoxicity test) (MDA-MB231) | Sensitivity of cell line to paclitaxel (judged by graph analysis of cytotoxicity test) (MCF-7) | Sensitivity of cell line to paclitaxel (judged by graph analysis of cytotoxicity test) (MDA-MB435) | levels of cell death (MCF-7 cells [6]) | tumor volume before decrease (start value) ([7]; Days 34-38) | tumor volume after decrease (end value) ([7]; Days 34-38, recorded to day 43) | control cells arrested at mitosis (MCF-7 cells [8]) | Response rate (various lung cancers)
CC(=O)O[C@@]12CO[C@@H]1C[C@H](O)[C@@]1(C)C(=O)[C@H](O)C3=C(C)[C@@H](OC(=O)[C@H](O)[C@@H](NC(=O)OC(C)(C)C)c4ccccc4)C[C@@](O)([C@@H](OC(=O)c4ccccc4)[C@H]21)C3(C)C [docetaxel, (2R,3S)-N-carboxy-3-phenylisoserine, N-tert-butyl ester, 13-ester with 5b-20-epoxy-12a,4,7b,10b,13a-hexahydroxytax-11-en-9-one 4-acetate 2-benzoate, trihydrate] | 1.9 fold | – | – | – | – | – | – | – | – | – | – | – | – | – | – | – | – | –
CC(=O)O[C@H]1C(=O)[C@@]2(C)[C@H]([C@H](OC(=O)c3ccccc3)[C@]3(O)C[C@H](OC(=O)[C@H](O)[C@@H](NC(=O)c4ccccc4)c4ccccc4)C(C)=C1C3(C)C)[C@]1(OC(C)=O)CO[C@@H]1C[C@@H]2O [paclitaxel] | – | 350 mm^3 | 1.0 | 3.0 mU/ng of CDK1 | 0.067 | 0.2 mU/ng of CDK1 | 19-36% | dramatic increase | 27-62% | resistant | susceptible | resistant | susceptible | high | 460 mm^3 | 120 mm^3 | at least 80% | 21-37%
